Measurements from ChEMBL document CHEMBL3885881, “DrugMatrix”.

Organism: Rattus norvegicus
Assay: DrugMatrix - Regimen: Daily Repeat
Assay type: toxicity, organism-based, Sprague-Dawley
Design: regimen Daily Repeat, gender Male, age 6-8 weeks
Conditions: in vivo, po, route oral GAVAGE, vehicle 100 % SALINE; for ABSOLUTE BASOPHIL / ABSOLUTE EOSINOPHIL / ABSOLUTE LYMPHOCYTE / ABSOLUTE MONOCYTE / ABSOLUTE SEGMENTED NEUTROPHIL / BASOPHIL / EOSINOPHIL / ERYTHROCYTE COUNT / HEMATOCRIT / HEMOGLOBIN / LEUKOCYTE COUNT / LYMPHOCYTE / MEAN CORPUSCULAR HEMOGLOBIN / MEAN CORPUSCULAR HEMOGLOBIN CONCENTRATION / MEAN CORPUSCULAR VOLUME / MONOCYTE / NEUTROPHIL / NUCLEATED RED BLOOD CELLS / PLATELET COUNT: tissue Blood; for ALANINE AMINOTRANSFERASE / ALBUMIN / ALKALINE PHOSPHATASE / ASPARTATE AMINOTRANSFERASE / BLOOD UREA NITROGEN / CARBON DIOXIDE / CHLORIDE / CHOLESTEROL / CREATINE PHOSPHOKINASE / CREATININE / GLUCOSE / LACTATE DEHYDROGENASE / LIPASE / PHOSPHORUS / POTASSIUM / SODIUM / TOTAL BILIRUBIN / TOTAL PROTEIN / URIC ACID: tissue Plasma
[1] = 0 mg/kg, 72 h, dose level Control, time 3 day
[2] = 0 mg/kg, […], dose level Control, time 7 day
[3] = 10 mg/kg, 72 h, dose level Low, time 3 day

O=[As][O-].[Na+] [SODIUM ARSENITE]
ABSOLUTE BASOPHIL [1]: 0 CELLS/uL | ABSOLUTE EOSINOPHIL [1]: 66 CELLS/uL | ABSOLUTE LYMPHOCYTE [1]: 11922.83 CELLS/uL | ABSOLUTE MONOCYTE [1]: 401.5 CELLS/uL | ABSOLUTE SEGMENTED NEUTROPHIL [1]: 1526.33 CELLS/uL | BASOPHIL [1]: 0% | EOSINOPHIL [1]: 0.5% | ERYTHROCYTE COUNT [1]: 5.62 x10E6/uL | HEMATOCRIT [1]: 37.17% | HEMOGLOBIN [1]: 13.53 G/DL | LEUKOCYTE COUNT [1]: 13.92 x10E3/uL | LYMPHOCYTE [1]: 86.17% | MEAN CORPUSCULAR HEMOGLOBIN [1]: 24.07 pg | MEAN CORPUSCULAR HEMOGLOBIN CONCENTRATION [1]: 36.42 G/DL | MEAN CORPUSCULAR VOLUME [1]: 66.1 fL | MONOCYTE [1]: 3% | NEUTROPHIL [1]: 10.33% | NUCLEATED RED BLOOD CELLS [1]: 0 /100WBC | PLATELET COUNT [1]: 1107 x10E3/uL | ALANINE AMINOTRANSFERASE [1]: 45.33 u/L | ALBUMIN [1]: 4.3 G/DL | ALKALINE PHOSPHATASE [1]: 321.33 u/L | ASPARTATE AMINOTRANSFERASE [1]: 77.33 u/L | BLOOD UREA NITROGEN [1]: 14.33 mg/dL | CARBON DIOXIDE [1]: 32.33 mmol/L | CHLORIDE [1]: 99.67 MEQ/L | CHOLESTEROL [1]: 82.33 mg/dL | CREATINE PHOSPHOKINASE [1]: 205.5 u/L | CREATININE [1]: 0.19 mg/dL | GLUCOSE [1]: 150.83 mg/dL | LACTATE DEHYDROGENASE [1]: 88.17 u/L | LIPASE [1]: 10.83 u/L | PHOSPHORUS [1]: 10.9 mg/dL | POTASSIUM [1]: 5.83 MEQ/L | SODIUM [1]: 145.15 MEQ/L | TOTAL BILIRUBIN [1]: 0.12 mg/dL | TOTAL PROTEIN [1]: 6.22 G/DL | URIC ACID [1]: 1 mg/dL | ABSOLUTE BASOPHIL [2]: 0 CELLS/uL | ABSOLUTE EOSINOPHIL [2]: 22 CELLS/uL | ABSOLUTE LYMPHOCYTE [2]: 11105.17 CELLS/uL | ABSOLUTE MONOCYTE [2]: 258.17 CELLS/uL | ABSOLUTE SEGMENTED NEUTROPHIL [2]: 881.33 CELLS/uL | BASOPHIL [2]: 0% | EOSINOPHIL [2]: 0.17% | ERYTHROCYTE COUNT [2]: 5.29 x10E6/uL | HEMATOCRIT [2]: 34.03% | HEMOGLOBIN [2]: 13.67 G/DL | LEUKOCYTE COUNT [2]: 12.27 x10E3/uL | LYMPHOCYTE [2]: 90.83% | MEAN CORPUSCULAR HEMOGLOBIN [2]: 25.9 pg | MEAN CORPUSCULAR HEMOGLOBIN CONCENTRATION [2]: 40.18 G/DL | MEAN CORPUSCULAR VOLUME [2]: 64.42 fL | MONOCYTE [2]: 2.17% | NEUTROPHIL [2]: 6.83% | NUCLEATED RED BLOOD CELLS [2]: 0 /100WBC | PLATELET COUNT [2]: 1159.83 x10E3/uL | ALANINE AMINOTRANSFERASE [2]: 45.83 u/L | ALBUMIN [2]: 4.1 G/DL | ALKALINE PHOSPHATASE [2]: 240 u/L | ASPARTATE AMINOTRANSFERASE [2]: 88.67 u/L | BLOOD UREA NITROGEN [2]: 13.67 mg/dL | CARBON DIOXIDE [2]: 31.83 mmol/L | CHLORIDE [2]: 96.83 MEQ/L | CHOLESTEROL [2]: 71.17 mg/dL | CREATINE PHOSPHOKINASE [2]: 202.5 u/L | CREATININE [2]: 0.22 mg/dL | GLUCOSE [2]: 132.67 mg/dL | LACTATE DEHYDROGENASE [2]: 107.17 u/L | LIPASE [2]: 10.5 u/L | PHOSPHORUS [2]: 10.47 mg/dL | POTASSIUM [2]: 6.23 MEQ/L | SODIUM [2]: 140.73 MEQ/L | TOTAL BILIRUBIN [2]: 0.12 mg/dL | TOTAL PROTEIN [2]: 6.18 G/DL | URIC ACID [2]: 0.87 mg/dL | ABSOLUTE BASOPHIL [3]: 0 CELLS/uL | ABSOLUTE EOSINOPHIL [3]: 54.67 CELLS/uL | ABSOLUTE LYMPHOCYTE [3]: 10489.83 CELLS/uL | ABSOLUTE MONOCYTE [3]: 135 CELLS/uL | ABSOLUTE SEGMENTED NEUTROPHIL [3]: 1470.5 CELLS/uL | BASOPHIL [3]: 0% | EOSINOPHIL [3]: 0.5% | ERYTHROCYTE COUNT [3]: 5.25 x10E6/uL | HEMATOCRIT [3]: 34.42% | HEMOGLOBIN [3]: 12.32 G/DL | LEUKOCYTE COUNT [3]: 12.15 x10E3/uL | LYMPHOCYTE [3]: 86.33% | MEAN CORPUSCULAR HEMOGLOBIN [3]: 23.48 pg | MEAN CORPUSCULAR HEMOGLOBIN CONCENTRATION [3]: 35.82 G/DL | MEAN CORPUSCULAR VOLUME [3]: 65.58 fL | MONOCYTE [3]: 1.17% | NEUTROPHIL [3]: 12% | NUCLEATED RED BLOOD CELLS [3]: 0.17 /100WBC | PLATELET COUNT [3]: 1089.17 x10E3/uL | ALANINE AMINOTRANSFERASE [3]: 43.5 u/L | ALBUMIN [3]: 4.08 G/DL | ALKALINE PHOSPHATASE [3]: 226.5 u/L | ASPARTATE AMINOTRANSFERASE [3]: 76.83 u/L | BLOOD UREA NITROGEN [3]: 10.5 mg/dL | CARBON DIOXIDE [3]: 25.83 mmol/L | CHLORIDE [3]: 100.17 MEQ/L | CHOLESTEROL [3]: 72 mg/dL | CREATINE PHOSPHOKINASE [3]: 296.17 u/L | CREATININE [3]: 0.2 mg/dL | GLUCOSE [3]: 151.5 mg/dL | LACTATE DEHYDROGENASE [3]: 177.33 u/L | LIPASE [3]: 10.33 u/L | PHOSPHORUS [3]: 11.43 mg/dL | POTASSIUM [3]: 5.33 MEQ/L | SODIUM [3]: 142.73 MEQ/L | TOTAL BILIRUBIN [3]: 0.15 mg/dL | TOTAL PROTEIN [3]: 5.93 G/DL | URIC ACID [3]: 1 mg/dL
